From ChEMBL document CHEMBL1201862, “PubChem BioAssay data set” (2004)
Activity calls are given as the source filed them.

Assays:
Trypsin = Trypsin (Sus scrofa, UniProt P00761); assay: trypsin protease activity blockade – biochemical, quenched peptide fluorescence, cherry-pick, selectivity assay for Rce1 protease inhibitor project, dose response (AID 488789)
CAAX prenyl protease 2 [1] = biological target: T1, CAAX prenyl protease 2 (Saccharomyces cerevisiae S288c, UniProt Q03530); type: biochemical
T1 sequence (Q03530 whole entry): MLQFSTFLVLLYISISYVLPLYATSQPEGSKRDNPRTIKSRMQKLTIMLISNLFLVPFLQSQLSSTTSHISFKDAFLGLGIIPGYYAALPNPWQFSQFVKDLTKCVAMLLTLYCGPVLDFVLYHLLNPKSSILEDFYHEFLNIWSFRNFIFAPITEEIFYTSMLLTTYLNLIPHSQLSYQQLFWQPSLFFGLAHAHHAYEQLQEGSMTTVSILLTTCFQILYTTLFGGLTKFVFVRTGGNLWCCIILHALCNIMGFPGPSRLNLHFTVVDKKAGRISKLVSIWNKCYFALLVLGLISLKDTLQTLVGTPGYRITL

CAAX prenyl protease 2 [2] = biological target: T2, CAAX prenyl protease 2 (Homo sapiens, UniProt Q9Y256); assay: inhibition of Ras-converting CAAX endoprotease – biochemical, plate reader, dry powder samples, dose response (AID 588848)
T2 sequence (Q9Y256 whole entry): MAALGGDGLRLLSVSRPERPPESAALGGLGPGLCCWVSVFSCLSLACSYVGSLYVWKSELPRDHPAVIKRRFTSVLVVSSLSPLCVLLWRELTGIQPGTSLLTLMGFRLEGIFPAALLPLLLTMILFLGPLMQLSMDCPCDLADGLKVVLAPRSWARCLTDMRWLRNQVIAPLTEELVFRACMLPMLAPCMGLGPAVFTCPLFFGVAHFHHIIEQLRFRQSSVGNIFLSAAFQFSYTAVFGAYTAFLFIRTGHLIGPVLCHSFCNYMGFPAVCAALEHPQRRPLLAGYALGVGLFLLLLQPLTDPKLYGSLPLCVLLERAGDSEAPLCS

CAAX prenyl protease 2 [3] = biological target: T1, CAAX prenyl protease 2; assay: inhibition of Rce1p peptide cleavage – biochemical, plate reader, dry powder retest, dose response (AID 588851)
Cytochrome P450 1A2 = biological target: T3, Cytochrome P450 1A2 (Homo sapiens, UniProt P05177);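 also: PubChem cytochrome P450 panel assay, CYP1A2 panel member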
T3 sequence (P05177 whole entry): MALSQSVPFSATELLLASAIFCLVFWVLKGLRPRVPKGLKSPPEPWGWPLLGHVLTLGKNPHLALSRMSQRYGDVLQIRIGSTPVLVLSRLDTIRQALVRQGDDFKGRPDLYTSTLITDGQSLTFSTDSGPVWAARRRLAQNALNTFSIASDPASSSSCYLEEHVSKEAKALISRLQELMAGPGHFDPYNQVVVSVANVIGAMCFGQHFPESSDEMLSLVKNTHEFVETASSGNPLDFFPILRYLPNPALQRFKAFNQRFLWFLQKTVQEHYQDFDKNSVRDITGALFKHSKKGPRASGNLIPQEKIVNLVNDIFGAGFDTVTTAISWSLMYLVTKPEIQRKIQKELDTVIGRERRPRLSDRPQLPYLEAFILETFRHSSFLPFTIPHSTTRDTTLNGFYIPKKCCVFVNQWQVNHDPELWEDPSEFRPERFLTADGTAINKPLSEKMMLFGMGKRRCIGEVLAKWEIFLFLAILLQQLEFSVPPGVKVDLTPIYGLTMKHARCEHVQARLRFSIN

[4] = biological target: Botulinum neurotoxin type A (Clostridium botulinum (strain Hall / ATCC 3502 / NCTC 13319 / Type A), UniProt P0DPI1); assay: High-throughput multiplex microsphere dose response for inhibitors of toxin protease, specifically Botulinum neurotoxin light chain A protease, compounds from Cherry Pick 01.; type: functional; conditions: read-out: EC50_MICROM
[5] = biological target: 5'-AMP-activated protein kinase catalytic subunit alpha-1 (Homo sapiens, UniProt Q13131); type: functional
[6] = biological target: Proto-oncogene tyrosine-protein kinase receptor Ret (Homo sapiens, UniProt P07949); type: functional;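 also: measured within a kinome-wide profiling panel, RET as the panel member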
[7] = biological target: Tyrosine-protein kinase receptor TYRO3 (Homo sapiens, UniProt Q06418); type: functional;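 also: TYRO3 value obtained as one member of a kinome-wide profiling panel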
[8] = biological target: Death-associated protein kinase 3 (Homo sapiens, UniProt O43293); type: functional;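 also: measured as one member of a kinome-wide profiling panel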
Activin receptor type-1 = biological target: T4, Activin receptor type-1 (Homo sapiens, UniProt Q04771); assay: Navigating the Kinome. Panel member name: ACVR1; type: functional
T4 sequence (Q04771 whole entry): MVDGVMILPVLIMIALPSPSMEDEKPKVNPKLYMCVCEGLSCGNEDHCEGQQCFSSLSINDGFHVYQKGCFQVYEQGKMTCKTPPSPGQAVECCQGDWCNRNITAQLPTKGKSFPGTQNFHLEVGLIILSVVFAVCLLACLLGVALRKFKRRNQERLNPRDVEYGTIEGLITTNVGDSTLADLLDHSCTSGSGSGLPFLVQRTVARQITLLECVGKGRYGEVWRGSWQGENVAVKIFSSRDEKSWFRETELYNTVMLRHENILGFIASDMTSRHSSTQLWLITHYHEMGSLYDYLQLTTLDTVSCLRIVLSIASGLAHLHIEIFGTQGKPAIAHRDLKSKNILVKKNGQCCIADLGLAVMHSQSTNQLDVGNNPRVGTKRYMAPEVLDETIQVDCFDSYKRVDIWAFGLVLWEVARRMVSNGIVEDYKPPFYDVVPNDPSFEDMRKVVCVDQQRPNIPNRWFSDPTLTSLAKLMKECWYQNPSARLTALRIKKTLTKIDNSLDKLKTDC

[9] = biological target: Serine/threonine-protein kinase pim-1 (Homo sapiens, UniProt P11309); type: functional
[10] = biological target: Casein kinase I isoform alpha (Homo sapiens, UniProt P48729); type: functional
LIM domain kinase 1 = LIM domain kinase 1 (Homo sapiens, UniProt P53667); assay: Navigating the Kinome. Panel member name: LIMK1; type: functional
[11] = biological target: Serine/threonine-protein kinase Chk1 (Homo sapiens, UniProt O14757); type: functional;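 also: measured as one member of a kinome-wide kinase profiling panel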
[12] = biological target: Cyclin-dependent kinase 5 (Homo sapiens, UniProt Q00535); type: functional;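 also: CDK5 measured as one member of a kinase profiling panel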
[13] = biological target: Dual specificity tyrosine-phosphorylation-regulated kinase 1B (Homo sapiens, UniProt Q9Y463); assay: Navigating the Kinome. Panel member name: DYRK1B; type: functional
[14] = biological target: cAMP-dependent protein kinase catalytic subunit PRKX (Homo sapiens, UniProt P51817); type: functional
Focal adhesion kinase 1 = Focal adhesion kinase 1 (Homo sapiens, UniProt Q05397); type: functional;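 also: measured as one member of a kinome panel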
[15] = biological target: Leucine-rich repeat serine/threonine-protein kinase 2 (Homo sapiens, UniProt Q5S007); type: functional;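 also: value from a broad kinome-wide panel profiling study in which LRRK2 was one of the kinases tested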
[16] = biological target: Cyclin-dependent kinase 8 (Homo sapiens, UniProt P49336); assay: Navigating the Kinome. Panel member name: CDK8; type: functional
[17] = biological target: Dual specificity protein kinase CLK4 (Homo sapiens, UniProt Q9HAZ1); type: functional
[18] = biological target: Dual specificity tyrosine-phosphorylation-regulated kinase 1A (Homo sapiens, UniProt Q13627); type: functional;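 also: measured against DYRK1A as one member of a broad kinome profiling panel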
[19] = biological target: Leukocyte tyrosine kinase receptor (Homo sapiens, UniProt P29376); assay: Navigating the Kinome. Panel member name: LTK; type: functional
[20] = biological target: Protein disulfide-isomerase (Homo sapiens, UniProt P07237); assay: inhibition of PDI-driven insulin aggregation – biochemical, turbidity, absorbance, cherry-picked samples, dose response (AID 602350); type: functional
Aminopeptidase N = biological target: T5, Aminopeptidase N (Plasmodium falciparum FcB1/Columbia, UniProt O96935); assay: malaria alanyl aminopeptidase activity blockers – biochemical, fluorogenic H-Leu-NHMec substrate, 1536-well (AID 1445); parameters: species or system Plasmodium falciparum 3D7, 3D7
T5 sequence (O96935 whole entry): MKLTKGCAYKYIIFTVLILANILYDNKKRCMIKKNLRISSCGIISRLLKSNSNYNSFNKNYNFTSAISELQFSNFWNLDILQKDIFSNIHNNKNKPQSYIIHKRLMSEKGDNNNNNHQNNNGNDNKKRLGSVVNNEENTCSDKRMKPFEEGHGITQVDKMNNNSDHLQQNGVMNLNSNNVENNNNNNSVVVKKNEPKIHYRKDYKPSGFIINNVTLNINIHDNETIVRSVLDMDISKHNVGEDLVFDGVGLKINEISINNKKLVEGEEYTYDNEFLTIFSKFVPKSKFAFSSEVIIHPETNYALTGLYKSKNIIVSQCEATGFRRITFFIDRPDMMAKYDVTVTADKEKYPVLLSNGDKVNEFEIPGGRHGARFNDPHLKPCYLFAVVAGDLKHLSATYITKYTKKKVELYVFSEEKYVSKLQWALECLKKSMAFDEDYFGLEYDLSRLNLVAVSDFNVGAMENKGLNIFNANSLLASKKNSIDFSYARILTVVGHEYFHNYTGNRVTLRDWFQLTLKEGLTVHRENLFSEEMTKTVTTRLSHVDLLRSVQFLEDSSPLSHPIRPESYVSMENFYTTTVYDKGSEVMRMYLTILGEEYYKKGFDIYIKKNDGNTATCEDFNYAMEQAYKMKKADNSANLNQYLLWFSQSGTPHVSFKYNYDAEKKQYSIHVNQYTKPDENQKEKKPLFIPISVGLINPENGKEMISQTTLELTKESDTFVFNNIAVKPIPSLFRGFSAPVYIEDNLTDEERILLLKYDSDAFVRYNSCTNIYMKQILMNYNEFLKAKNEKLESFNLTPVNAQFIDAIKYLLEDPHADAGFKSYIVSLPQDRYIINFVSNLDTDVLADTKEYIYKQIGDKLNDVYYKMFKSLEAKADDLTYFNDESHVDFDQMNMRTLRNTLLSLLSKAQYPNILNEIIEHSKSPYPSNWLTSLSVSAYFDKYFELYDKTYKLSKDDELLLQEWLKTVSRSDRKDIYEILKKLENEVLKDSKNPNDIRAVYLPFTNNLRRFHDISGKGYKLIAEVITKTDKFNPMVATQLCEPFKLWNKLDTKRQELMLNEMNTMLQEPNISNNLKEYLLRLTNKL

[21] = biological target: 26S proteasome non-ATPase regulatory subunit 14 (Homo sapiens, UniProt O00487); assay: inhibition of proteasome subunit RPN11 – biochemical, fluorescence polarization, uHTS hits, confirmation (AID 602368); type: functional
[22] = biological target: 72 kDa type IV collagenase (Homo sapiens, UniProt P08253); assay: Dose Response validation of uHTS RPN11 inhibitor hits using a MMP-2 Fluorescence assay.; type: functional
Prothrombin = Prothrombin (Bos taurus, UniProt P00735); assay: thrombin protease inhibitors – biochemical, fluorescence polarization, uHTS hits, dose response (AID 602369); type: functional
[23] = biological target: T6, Rac GTPase-activating protein 1 (Homo sapiens, UniProt Q9H0H5); assay: blockers of MgcRacGAP-driven Rac1 GTP hydrolysis – biochemical, ADP Hunter fluorescence, primary and confirmatory, confirmation (AID 624330); type: functional
T6 sequence (Q9H0H5 whole entry): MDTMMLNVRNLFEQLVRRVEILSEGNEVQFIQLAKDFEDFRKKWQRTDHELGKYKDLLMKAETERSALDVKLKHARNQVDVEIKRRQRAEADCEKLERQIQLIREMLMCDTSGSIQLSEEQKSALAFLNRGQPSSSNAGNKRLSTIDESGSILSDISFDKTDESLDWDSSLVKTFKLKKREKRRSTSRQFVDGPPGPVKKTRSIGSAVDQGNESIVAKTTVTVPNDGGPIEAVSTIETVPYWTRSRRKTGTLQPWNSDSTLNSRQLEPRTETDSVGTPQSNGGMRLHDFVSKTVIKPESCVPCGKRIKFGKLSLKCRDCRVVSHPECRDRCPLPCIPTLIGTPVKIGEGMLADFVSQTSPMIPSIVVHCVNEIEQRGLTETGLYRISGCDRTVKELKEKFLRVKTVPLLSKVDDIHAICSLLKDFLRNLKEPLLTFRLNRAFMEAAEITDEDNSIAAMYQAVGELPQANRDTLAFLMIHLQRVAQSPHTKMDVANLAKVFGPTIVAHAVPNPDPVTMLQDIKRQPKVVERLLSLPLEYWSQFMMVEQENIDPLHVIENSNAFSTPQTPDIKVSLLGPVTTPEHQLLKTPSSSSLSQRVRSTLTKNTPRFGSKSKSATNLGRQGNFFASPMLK

[24] = rescue of ΔF508 CFTR function, airway epithelium – human bronchial epithelial cells, plate reader, cherry-pick, two tests, dose response (AID 743267); type: functional, cell-based
[25] = biological target: DNA dC->dU-editing enzyme APOBEC-3G (Homo sapiens, UniProt Q9HC16); assay: inhibition of APOBEC3G ssDNA deamination – biochemical, fluorescence, single-stranded DNA substrate, SAR follow-up (AID 602136); type: functional; conditions: read-out: IC50_Mean
[26] = biological target: DNA dC->dU-editing enzyme APOBEC-3A (Homo sapiens, UniProt P31941); assay: SAR analysis of small molecule inhibitors of APOBEC3A DNA Deaminase via a fluorescence-based single-stranded DNA deaminase assay.; type: functional; conditions: read-out: IC50_Mean
Chain of DNA dC->dU-editing enzyme APOBEC-3A (P31941 whole entry): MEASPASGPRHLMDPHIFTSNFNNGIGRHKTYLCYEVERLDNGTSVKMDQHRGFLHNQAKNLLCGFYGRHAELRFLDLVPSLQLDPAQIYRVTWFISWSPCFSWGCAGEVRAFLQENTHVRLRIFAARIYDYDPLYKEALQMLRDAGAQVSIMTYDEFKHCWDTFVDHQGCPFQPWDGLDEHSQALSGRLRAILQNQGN

Chain of 5'-AMP-activated protein kinase catalytic subunit alpha-1 (Q13131 whole entry): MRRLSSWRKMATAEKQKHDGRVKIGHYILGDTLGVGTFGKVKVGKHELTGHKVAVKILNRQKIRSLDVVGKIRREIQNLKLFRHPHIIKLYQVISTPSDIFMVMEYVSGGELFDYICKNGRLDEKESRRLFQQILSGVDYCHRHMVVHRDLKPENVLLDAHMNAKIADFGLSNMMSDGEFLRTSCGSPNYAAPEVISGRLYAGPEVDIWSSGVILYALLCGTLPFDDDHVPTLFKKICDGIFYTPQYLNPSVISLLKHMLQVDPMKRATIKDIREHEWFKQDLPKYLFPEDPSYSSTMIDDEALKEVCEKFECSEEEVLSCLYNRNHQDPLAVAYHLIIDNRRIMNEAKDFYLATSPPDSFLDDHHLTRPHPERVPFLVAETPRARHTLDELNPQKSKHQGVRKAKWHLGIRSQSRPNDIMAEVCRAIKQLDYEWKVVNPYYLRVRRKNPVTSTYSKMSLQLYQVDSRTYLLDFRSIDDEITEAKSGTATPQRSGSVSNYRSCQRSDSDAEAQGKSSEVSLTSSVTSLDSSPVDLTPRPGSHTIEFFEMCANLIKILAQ
Chain of Botulinum neurotoxin type A (P0DPI1 2-448 limits assumed): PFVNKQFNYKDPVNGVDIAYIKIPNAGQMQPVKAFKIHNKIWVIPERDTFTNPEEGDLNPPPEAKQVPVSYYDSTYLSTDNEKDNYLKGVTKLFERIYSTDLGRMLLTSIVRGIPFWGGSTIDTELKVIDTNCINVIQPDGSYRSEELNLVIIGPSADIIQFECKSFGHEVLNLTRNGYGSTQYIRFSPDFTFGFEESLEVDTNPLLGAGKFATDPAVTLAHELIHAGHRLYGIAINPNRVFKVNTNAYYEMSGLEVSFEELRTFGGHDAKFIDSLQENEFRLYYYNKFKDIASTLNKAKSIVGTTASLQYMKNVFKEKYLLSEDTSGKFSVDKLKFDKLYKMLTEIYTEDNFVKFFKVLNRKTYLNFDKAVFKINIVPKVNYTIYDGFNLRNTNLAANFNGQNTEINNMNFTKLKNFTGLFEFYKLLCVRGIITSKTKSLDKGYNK
Chain of Death-associated protein kinase 3 (O43293 whole entry): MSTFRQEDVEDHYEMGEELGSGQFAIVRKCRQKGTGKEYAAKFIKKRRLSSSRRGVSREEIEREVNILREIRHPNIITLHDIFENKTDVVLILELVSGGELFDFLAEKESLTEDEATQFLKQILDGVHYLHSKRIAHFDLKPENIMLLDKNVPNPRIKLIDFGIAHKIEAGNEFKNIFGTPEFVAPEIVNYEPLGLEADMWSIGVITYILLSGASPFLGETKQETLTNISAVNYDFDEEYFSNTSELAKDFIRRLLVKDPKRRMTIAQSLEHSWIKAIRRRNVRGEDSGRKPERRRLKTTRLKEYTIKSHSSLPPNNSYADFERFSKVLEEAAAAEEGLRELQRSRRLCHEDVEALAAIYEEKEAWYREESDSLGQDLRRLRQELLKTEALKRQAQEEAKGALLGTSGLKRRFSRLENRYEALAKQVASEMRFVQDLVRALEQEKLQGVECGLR
Chain of Dual specificity protein kinase CLK4 (Q9HAZ1 whole entry): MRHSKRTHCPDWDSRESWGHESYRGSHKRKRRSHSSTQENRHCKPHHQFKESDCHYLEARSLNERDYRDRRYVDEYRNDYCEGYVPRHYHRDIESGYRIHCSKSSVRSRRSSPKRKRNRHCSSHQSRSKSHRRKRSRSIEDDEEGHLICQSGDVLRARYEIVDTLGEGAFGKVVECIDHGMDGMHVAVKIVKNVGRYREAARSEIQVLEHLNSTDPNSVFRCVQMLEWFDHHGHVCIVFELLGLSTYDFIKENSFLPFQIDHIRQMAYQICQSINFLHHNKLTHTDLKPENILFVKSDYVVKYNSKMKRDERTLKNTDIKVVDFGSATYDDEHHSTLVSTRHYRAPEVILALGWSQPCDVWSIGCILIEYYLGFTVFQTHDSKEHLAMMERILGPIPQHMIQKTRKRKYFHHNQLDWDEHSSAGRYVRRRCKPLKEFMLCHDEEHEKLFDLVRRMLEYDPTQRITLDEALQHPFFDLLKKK
Chain of Leucine-rich repeat serine/threonine-protein kinase 2 (Q5S007 whole entry): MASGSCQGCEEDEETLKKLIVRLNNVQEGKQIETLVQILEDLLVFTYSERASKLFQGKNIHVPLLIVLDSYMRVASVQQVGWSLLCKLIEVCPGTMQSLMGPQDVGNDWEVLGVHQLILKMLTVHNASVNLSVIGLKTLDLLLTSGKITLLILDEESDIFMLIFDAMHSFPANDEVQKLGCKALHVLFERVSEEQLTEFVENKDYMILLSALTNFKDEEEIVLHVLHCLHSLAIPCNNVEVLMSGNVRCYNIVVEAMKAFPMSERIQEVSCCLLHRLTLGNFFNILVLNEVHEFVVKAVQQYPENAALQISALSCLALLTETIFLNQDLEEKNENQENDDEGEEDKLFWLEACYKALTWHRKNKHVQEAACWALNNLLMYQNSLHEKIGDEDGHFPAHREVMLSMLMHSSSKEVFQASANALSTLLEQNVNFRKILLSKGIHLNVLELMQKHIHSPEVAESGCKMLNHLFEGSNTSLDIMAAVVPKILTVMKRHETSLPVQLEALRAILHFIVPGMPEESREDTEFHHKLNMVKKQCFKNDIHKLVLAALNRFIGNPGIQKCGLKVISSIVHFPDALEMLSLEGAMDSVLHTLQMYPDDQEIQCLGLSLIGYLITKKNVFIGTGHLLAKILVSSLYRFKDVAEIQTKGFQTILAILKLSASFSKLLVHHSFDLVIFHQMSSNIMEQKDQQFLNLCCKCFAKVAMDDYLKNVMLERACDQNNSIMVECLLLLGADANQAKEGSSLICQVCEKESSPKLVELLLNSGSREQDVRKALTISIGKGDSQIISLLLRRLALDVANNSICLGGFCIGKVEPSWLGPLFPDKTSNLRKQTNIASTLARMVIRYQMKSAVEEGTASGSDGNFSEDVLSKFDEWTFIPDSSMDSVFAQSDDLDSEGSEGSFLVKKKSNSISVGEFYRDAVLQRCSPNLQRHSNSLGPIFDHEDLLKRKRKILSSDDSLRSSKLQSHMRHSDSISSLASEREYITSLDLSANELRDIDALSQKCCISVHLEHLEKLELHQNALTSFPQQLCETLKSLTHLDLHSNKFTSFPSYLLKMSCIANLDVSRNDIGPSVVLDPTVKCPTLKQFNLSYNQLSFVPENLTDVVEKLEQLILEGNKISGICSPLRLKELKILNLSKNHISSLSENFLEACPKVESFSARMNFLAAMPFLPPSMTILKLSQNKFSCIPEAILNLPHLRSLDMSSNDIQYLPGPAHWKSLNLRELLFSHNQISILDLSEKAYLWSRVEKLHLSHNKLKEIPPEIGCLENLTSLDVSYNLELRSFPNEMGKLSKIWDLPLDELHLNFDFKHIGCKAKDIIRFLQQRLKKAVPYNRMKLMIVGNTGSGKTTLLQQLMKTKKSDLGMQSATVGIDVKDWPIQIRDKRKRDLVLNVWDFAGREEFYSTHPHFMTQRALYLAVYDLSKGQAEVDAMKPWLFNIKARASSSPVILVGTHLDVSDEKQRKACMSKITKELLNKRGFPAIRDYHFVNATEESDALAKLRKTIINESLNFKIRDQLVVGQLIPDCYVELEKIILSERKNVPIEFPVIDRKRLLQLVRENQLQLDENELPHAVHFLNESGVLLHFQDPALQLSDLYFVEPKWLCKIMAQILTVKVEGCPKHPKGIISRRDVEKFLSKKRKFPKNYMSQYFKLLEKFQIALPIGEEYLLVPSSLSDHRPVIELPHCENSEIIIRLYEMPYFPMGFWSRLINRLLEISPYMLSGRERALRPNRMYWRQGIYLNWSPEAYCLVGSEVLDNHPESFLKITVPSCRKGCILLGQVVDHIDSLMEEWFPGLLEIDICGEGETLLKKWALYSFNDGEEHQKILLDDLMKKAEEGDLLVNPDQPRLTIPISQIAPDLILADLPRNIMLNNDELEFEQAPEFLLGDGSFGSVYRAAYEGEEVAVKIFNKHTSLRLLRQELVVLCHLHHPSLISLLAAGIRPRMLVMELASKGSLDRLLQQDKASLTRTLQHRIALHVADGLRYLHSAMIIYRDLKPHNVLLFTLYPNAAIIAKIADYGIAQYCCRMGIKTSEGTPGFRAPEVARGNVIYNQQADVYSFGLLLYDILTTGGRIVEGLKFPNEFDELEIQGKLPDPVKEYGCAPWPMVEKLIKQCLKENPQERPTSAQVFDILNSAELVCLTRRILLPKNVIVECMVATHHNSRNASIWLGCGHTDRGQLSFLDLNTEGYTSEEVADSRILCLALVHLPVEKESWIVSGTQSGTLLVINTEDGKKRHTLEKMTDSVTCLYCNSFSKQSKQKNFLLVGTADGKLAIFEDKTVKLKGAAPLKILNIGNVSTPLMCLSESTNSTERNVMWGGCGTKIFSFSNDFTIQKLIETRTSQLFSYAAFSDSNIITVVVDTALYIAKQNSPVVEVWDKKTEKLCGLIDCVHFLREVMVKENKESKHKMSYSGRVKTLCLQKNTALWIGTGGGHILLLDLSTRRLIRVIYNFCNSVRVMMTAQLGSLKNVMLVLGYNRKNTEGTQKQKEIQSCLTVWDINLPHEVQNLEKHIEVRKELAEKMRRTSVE
Chain of DNA dC->dU-editing enzyme APOBEC-3G (Q9HC16 whole entry): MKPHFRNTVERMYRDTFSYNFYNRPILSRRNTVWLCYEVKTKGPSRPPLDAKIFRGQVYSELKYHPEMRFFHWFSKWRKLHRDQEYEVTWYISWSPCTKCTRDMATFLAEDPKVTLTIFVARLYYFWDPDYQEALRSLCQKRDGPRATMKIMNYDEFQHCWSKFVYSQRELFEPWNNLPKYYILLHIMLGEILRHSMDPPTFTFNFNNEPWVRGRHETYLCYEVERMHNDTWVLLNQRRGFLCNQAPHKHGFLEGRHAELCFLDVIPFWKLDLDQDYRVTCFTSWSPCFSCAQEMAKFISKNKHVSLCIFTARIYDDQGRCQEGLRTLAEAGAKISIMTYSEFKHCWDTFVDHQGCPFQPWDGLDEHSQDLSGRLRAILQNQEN

Compound: CCOc1cc(S(=O)(=O)N(Cc2ccccc2)Cc2ccccc2)c(OCC)cc1-n1cnnn1
- AC50 (Trypsin): 34 µM (active)
- AC50 (CAAX prenyl protease 2 [1]): 1.45 µM (active)
- AC50 (CAAX prenyl protease 2 [2]): 35.6 µM (active)
- AC50 (CAAX prenyl protease 2 [3]): 16.8 µM (active)
- AC50 (Cytochrome P450 1A2): 15.8 µM (inconclusive)

Compound: COc1ccc(OC)c(-c2nc3cc4ccccc4cc3nc2-c2ccccc2)c1
- EC50 [4]: 17.9 µM (active)

Compound: O=C1NS(=O)(=O)c2ccc(Cl)cc21
- Ki [5]: 50.1 µM (active)
- Ki [6]: 100 µM (active)
- Ki [7]: 20 µM (active)
- Ki [8]: 31.6 µM (active)
- Ki (Activin receptor type-1): 79.4 µM (active)
- Ki [9]: 79.4 µM (active)
- Ki [10]: 100 µM (active)
- Ki (LIM domain kinase 1): 25.1 µM (active)
- Ki [11]: 79.4 µM (active)
- Ki [12]: 50.1 µM (active)
- Ki [13]: 20 µM (active)
- Ki [14]: 63.1 µM (active)
- Ki (Focal adhesion kinase 1): 79.4 µM (active)
- Ki [15]: 50.1 µM (active)
- Ki [16]: 63.1 µM (active)
- Ki [17]: 63.1 µM (active)
- Ki [18]: 20 µM (active)
- Ki [19]: 31.6 µM (active)

Compound: COc1ccc(C(=O)Nc2ccccc2C(=O)NCc2ccco2)cc1
- AC50 [20]: 0.819 µM (active)

Compound: CCOc1cc(/C=C2\C(=N)N3N=C(S(=O)(=O)CC)SC3=NC2=O)ccc1O
- IC50 (Aminopeptidase N): 55.7 µM (active)
- IC50 [21]: 28.6 µM (active)
- IC50 [22]: > 100 µM (inactive)
- IC50 (Prothrombin): 34.8 µM (active)
- IC50 [23]: 79.6 µM (active)
- AC50 [24]: 24.9 µM (active)

Compound: Cc1cc(C(=O)N2CCCC(NS(C)(=O)=O)C2)c(C)n1Cc1ccccc1 (stereo not drawn)
- IC50 [25]: > 99 µM (inactive)
- IC50 [26]: > 99 µM (inactive)
